Measured values reported in patent publication US12264134B2 (Merck Sharp & Dohme LLC, priority 2018, dated 2025).

Tests used:
[1] = target: T1, IDO1 (Homo sapiens, UniProt P14902); assay: IDO1 Cellular Assay in HeLa Cells Stimulated with IFNγ; assay type: cell-based; settings: read-out: HeLa Cell Potency, IC50
[2] = target: T1, IDO1; assay: IDO1 Human Whole blood Assay; assay type: cell-based; parameters: Human whole blood was drawn in sodium heparin coated tubes from healthy internal donors; from tissue; host or cells: human whole blood from healthy donors, stimulated with LPS and IFNγ; settings: LPS and IFNγ stimulated, 18 h, read-out: Human Whole Blood Potency, IC50
Outline: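 LC/MS/MS of kynurenine, normalized to spiked isotope-labeled standard (3 μM final), served as the readout. Beforehand, fresh human blood with compound (15 min preincubation) was stimulated overnight (18 h, 37 °C) with 100 ng/mL LPS/IFNγ. IC50 was obtained by four-parameter curve fitting.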

T1 sequence (P14902 whole entry): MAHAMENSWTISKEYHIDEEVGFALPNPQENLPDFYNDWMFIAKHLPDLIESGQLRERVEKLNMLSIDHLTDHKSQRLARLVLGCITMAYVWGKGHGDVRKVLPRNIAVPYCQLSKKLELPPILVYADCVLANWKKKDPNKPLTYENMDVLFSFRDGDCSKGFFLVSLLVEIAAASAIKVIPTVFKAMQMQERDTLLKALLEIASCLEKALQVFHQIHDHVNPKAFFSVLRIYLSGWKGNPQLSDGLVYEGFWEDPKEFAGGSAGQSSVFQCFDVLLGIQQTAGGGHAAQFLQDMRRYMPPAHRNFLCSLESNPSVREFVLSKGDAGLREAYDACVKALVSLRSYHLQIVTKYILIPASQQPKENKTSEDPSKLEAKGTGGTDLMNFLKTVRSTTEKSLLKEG

IC50 [1] [nM]	IC50 [2] [nM]	Structure (SMILES)
1.65	209	Cc1cccc(N2CCN(C(=O)Cn3nc(C(=O)N4CCC(CCO)CC4)c4c3CCC4)CC2)c1C [Example 160, 1-[4-(2,3-dimethylphenyl)piperazin-1-yl]-2-{3-[4-(2-hydroxyethyl)piperidine-1-carbonyl]-5,6-dihydrocyclopenta[c]pyrazol-1(4H)-yl}ethan-1-one]
2.96	454	Cc1cccc(N2CCN(C(=O)Cn3nc(C(=O)N4CCN(S(=O)(=O)N(C)C)CC4)c4c3CCC4)CC2)c1C [Example 89, 4-(1-{2-[4-(2,3-dimethylphenyl)piperazin-1-yl]-2-oxoethyl}-1,4,5,6-tetrahydrocyclopenta[c]pyrazole-3-carbonyl)-N,N-dimethylpiperazine-1-sulfonamide]
1.64	196	Cc1cccc(N2CCN(C(=O)Cn3nc(C(=O)N4CCC(O)(C(F)F)CC4)c4c3CCC4)CC2)c1C [Example 192, 2-{3-[4-(difluoromethyl)-4-hydroxypiperidine-1-carbonyl]-5,6-dihydrocyclopenta[c]pyrazol-1(4H)-yl}-1-[4-(2,3-dimethylphenyl)piperazin-1-yl]ethan-1-one]
1.17	3870	Cc1cccc(N2CCN(C(=O)Cn3nc(C(=O)N4CCO[C@@H](CO)C4)c4c3C[C@H]3C[C@@H]43)C3(CC3)C2)c1C [Example 360, 1-(7-(2,3-dimethylphenyl)-4,7-diazaspiro[2.5]octan-4-yl)-2-((3bR,4aR)-3-((R)-2-(hydroxymethyl)morpholine-4-carbonyl)-3b,4,4a,5-tetrahydro-1H-cyclopropa[3,4]cyclopenta[1,2-c]pyrazol-1-yl)ethanone]
5.03	813	Cc1cccc(N2CCN(C(=O)Cn3nc(C(=O)N4CCC(OCCO)CC4)c4c3C[C@H]3C[C@@H]43)[C@H]3CCC[C@@H]32)c1C (racemic) [Example 326, 1-[rac-(4aS,7aS or 4aR,7aR)-1-(2,3-dimethylphenyl)-3,4a,5,6,7,7a-hexahydro-2H-cyclopenta[b]pyrazin-4-yl]-2-[(2R,4R)-9-[4-(2-hydroxyethoxy)piperidine-1-carbonyl]-7,8-diazatricyclo[4.3.0.02,4]nona-1(6),8-dien-7-yl]ethanone]
3.37	208	Cc1cccc(N2CCN(C(=O)Cn3nc(C(=O)N4CC[C@@H](O)[C@H](F)C4)c4c3CCCC4)CC2)c1C [Example 472, 1-(4-(2,3-dimethylphenyl)piperazin-1-yl)-2-(3-((3R,4R)-3-fluoro-4-hydroxypiperidine-1-carbonyl)-4,5,6,7-tetrahydro-1H-indazol-1-yl)ethanone]
1.37	37	Cc1cccc(N2CCN(C(=O)Cn3nc(C(=O)N4CCC(OCCO)CC4)c4c3CCCC4)CC2)c1C [Example 463, 1-(4-(2,3-dimethylphenyl)piperazin-1-yl)-2-(3-(4-(2-hydroxyethoxy)piperidine-1-carbonyl)-4,5,6,7-tetrahydro-1H-indazol-1-yl)ethanone]
2.97	199	Cc1cccc(N2CCN(C(=O)Cn3nc(C(=O)N4CCC(OCCO)CC4)c4c3CCC4)CC2)c1C [Example 120, 1-[4-(2,3-dimethylphenyl)piperazin-1-yl]-2-{3-[4-(2-hydroxyethoxy)piperidine-1-carbonyl]-5,6-dihydrocyclopenta[c]pyrazol-1(4H)-yl}ethan-1-one]
1.38	4070	Cc1cccc(N2CCN(C(=O)Cn3nc(C(=O)N4CCC(O)CC4)c4c3C[C@H]3C[C@@H]43)[C@@H](C)C2)c1C [Example 334, 1-[(2S)-4-(2,3-dimethylphenyl)-2-methylpiperazin-1-yl]-2-[(3bR,4aR)-3-(4-hydroxypiperidine-1-carbonyl)-3b,4,4a,5-tetrahydro-1H-cyclopropa[3,4]cyclopenta[1,2-c]pyrazol-1-yl]ethan-1-one]
2.42	113	Cc1cccc(N2CCN(C(=O)Cn3nc(C(=O)N4CCC(C)(CO)CC4)c4c3CCC4)CC2)c1C [Example 161, 1-[4-(2,3-dimethylphenyl)piperazin-1-yl]-2-{3-[4-(hydroxymethyl)-4-methylpiperidine-1-carbonyl]-5,6-dihydrocyclopenta[c]pyrazol-1(4H)-yl}ethan-1-one]
5.88	441	Cc1cccc(N2CCN(C(=O)Cn3nc(C(=O)N4CCN(C5COC5)CC4)c4c3CCC4)CC2)c1C [Example 168, 1-[4-(2,3-dimethylphenyl)piperazin-1-yl]-2-{3-[4-(oxetan-3-yl)piperazine-1-carbonyl]-5,6-dihydrocyclopenta[c]pyrazol-1(4H)-yl}ethan-1-one]
4.26	126	Cc1cccc(N2CCN(C(=O)Cn3nc(C(=O)N4CCC(O)CC4)c4c3C[C@H](C(F)F)C4)CC2)c1C (single isomer, unassigned) [Example 9]
70	9490	Cc1cccc(N2CCN(C(=O)Cn3nc(C(=O)N4CCC(O)(CF)CC4)c4c3C[C@H]3C[C@@H]43)C(C)(C)C2)c1C [Example 332, 1-[4-(2,3-dimethylphenyl)-2,2-dimethylpiperazin-1-yl]-2-{(3bR,4aR)-3-[4-(fluoromethyl)-4-hydroxypiperidine-1-carbonyl]-3b,4,4a,5-tetrahydro-1H-cyclopropa[3,4]cyclopenta[1,2-c]pyrazol-1-yl}ethan-1-one]
2.79	212	Cc1cccc(N2CCN(C(=O)Cn3nc(C(=O)N4CC[C@H](O)[C@@H](F)C4)c4c3C[C@H]3C[C@@H]43)CC2)c1C [Example 291, 1-[4-(2,3-dimethylphenyl)piperazin-1-yl]-2-{(3bR,4aR)-3-[(3S,4S)-3-fluoro-4-hydroxypiperidine-1-carbonyl]-3b,4,4a,5-tetrahydro-1H-cyclopropa[3,4]cyclopenta[1,2-c]pyrazol-1-yl}ethan-1-one]
1.71	100	Cc1cccc(N2CCN(C(=O)Cn3nc(C(=O)N4CC[C@@H](O)[C@@H](F)C4)c4c3C[C@H]3C[C@@H]43)CC2)c1C [Example 288, 1-[4-(2,3-dimethylphenyl)piperazin-1-yl]-2-{(3bR,4aR)-3-[(3S,4R)-3-fluoro-4-hydroxypiperidine-1-carbonyl]-3b,4,4a,5-tetrahydro-1H-cyclopropa[3,4]cyclopenta[1,2-c]pyrazol-1-yl}ethan-1-one]
1.46	58	Cc1cccc(N2CCN(C(=O)Cn3nc(C(=O)N4CCN(C(=O)CO)CC4)c4c3C[C@H]3C[C@@H]43)CC2)c1C [Example 285, 1-[4-(2,3-dimethylphenyl)piperazin-1-yl]-2-{(3bR,4aR)-3-[4-(hydroxyacetyl)piperazine-1-carbonyl]-3b,4,4a,5-tetrahydro-1H-cyclopropa[3,4]cyclopenta[1,2-c]pyrazol-1-yl}ethan-1-one]
1.6	1050	Cc1c(F)ccc(N2CCN(C(=O)Cn3nc(C(=O)N4CCN(CC(N)=O)CC4)c4c3C[C@H]3C[C@@H]43)C3(CC3)C2)c1C [Example 322, 2-{4-[(3bR,4aR)-1-{2-[7-(4-fluoro-2,3-dimethylphenyl)-4,7-diazaspiro[2.5]octan-4-yl]-2-oxoethyl}-3b,4,4a,5-tetrahydro-1H-cyclopropa[3,4]cyclopenta[1,2-c]pyrazole-3-carbonyl]piperazin-1-yl}acetamide]
